Measured values published in patent US20100247525A1 (priority 2006, published 2010).
Where “and” joins values, the source holds several entries; their conditions need not be identical. Equal values may be shown once.

Experiments:
human TNF-α = molecular target: T1, human TNF-α (Homo sapiens, UniProt P01375); conditions: in vivo
T1 construct: purchased Chemicon, Inc

LeTx pre-sensitized mice = conditions: mouse, in vivo
NFkappaB translocation = conditions: mouse, in vivo

T1 sequence (P01375 77-233 limits assumed): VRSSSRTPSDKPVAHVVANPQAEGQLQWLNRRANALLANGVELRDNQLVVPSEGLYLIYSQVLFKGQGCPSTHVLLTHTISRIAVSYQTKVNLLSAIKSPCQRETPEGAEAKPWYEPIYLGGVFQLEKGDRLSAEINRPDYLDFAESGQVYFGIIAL

In the case of Etanercept, the prevention of lethality (human TNF-α) is reported as “prevents lethality” and the “protection when the death initiator is human TNF-α” value (human TNF-α) is reported as “protects”.
In the case of PAM3-CSK-4, the “initiation of RDP” value (LeTx pre-sensitized mice) is reported as “initiates RDP” and the “initiation of RDP (death initiator)” value (LeTx pre-sensitized mice) is reported as “death initiators”.
With `Cc1ccc(=O)n(-c2ccccc2)c1` [Pirfenidone] the survival enhancement (NFkappaB translocation) was 40% and 20%.
